This passage reports IC50 results from patent US20260265195A1, “SARM1 MODULATORS, PREPARATIONS, AND USES THEREOF” (SIRONAX LTD, priority 2022, published 2026).

pIC50: −log10 of the molar value.

In general, pIC50 refers to −log10 of the IC50, conventionally taken in molar units.

The assay concerns the target T1, SARM1 (50-724) (Homo sapiens, UniProt Q6SZW1).
T1 construct: Purified SARM1 (50-724) with a final concentration of 2 nM
T1 sequence (Q6SZW1 50-724): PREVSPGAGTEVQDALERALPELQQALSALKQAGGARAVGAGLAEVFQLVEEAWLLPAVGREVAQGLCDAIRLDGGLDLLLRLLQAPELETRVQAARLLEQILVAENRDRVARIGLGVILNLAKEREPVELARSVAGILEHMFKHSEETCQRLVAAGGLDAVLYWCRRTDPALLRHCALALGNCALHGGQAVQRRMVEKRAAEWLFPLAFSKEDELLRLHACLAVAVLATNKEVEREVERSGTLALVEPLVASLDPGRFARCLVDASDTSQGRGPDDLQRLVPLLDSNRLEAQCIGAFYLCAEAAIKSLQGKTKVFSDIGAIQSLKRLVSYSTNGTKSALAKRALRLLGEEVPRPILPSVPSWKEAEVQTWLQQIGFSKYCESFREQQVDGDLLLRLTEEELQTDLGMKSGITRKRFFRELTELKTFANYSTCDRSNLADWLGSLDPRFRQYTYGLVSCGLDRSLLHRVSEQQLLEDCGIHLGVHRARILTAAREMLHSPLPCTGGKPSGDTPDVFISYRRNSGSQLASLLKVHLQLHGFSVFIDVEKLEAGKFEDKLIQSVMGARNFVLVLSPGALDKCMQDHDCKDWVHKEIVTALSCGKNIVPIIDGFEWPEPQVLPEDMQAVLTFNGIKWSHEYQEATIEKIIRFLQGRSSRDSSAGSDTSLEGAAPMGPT
Kind of assay: SARM1 (50-724) enzymatic assay (NMN-activated NAD+ hydrolysis, LC-MS/MS readout). Particulars: purified SARM1 (50-724) 2 nM, 200 μM NMN activator, 100 μM NAD+ substrate, 1 h at room temperature, read-out: IC50 (SARM1 inhibitory activity). Format: biochemical. The gist of the method:
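Purified human SARM1 (50-724), 2 nM final in DPBS, pre-incubated 15 min at RT with compound (1% DMSO), then started with 200 μM NMN activator and 100 μM NAD+. After 1 h at RT, quenched with 70% acetonitrile; analysed by LC-MS/MS.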
With `O=C(c1nc2cc(C(F)(F)F)ccc2[nH]1)N(c1cn[nH]c1)c1cccc(Cl)c1Cl` [Compound 127, N-(2,3-dichlorophenyl)-N-(1H-pyrazol-4-yl)-5-(trifluoromethyl)-1H-benzo[d]imidazole-2-carboxamide], the pIC50 was not below 7.00.

In the case of `O=C(c1nc2cc(C(F)(F)F)ccc2[nH]1)N(CCOCCO)c1cccc(Cl)c1Cl` [Compound 128, N-(2,3-dichlorophenyl)-N-(2-(2-hydroxyethoxy)ethyl)-5-(trifluoromethyl)-1H-benzo[d]imidazole-2-carboxamide], the pIC50 is not below 7.00. For `CS(=O)(=O)CCCN(C(=O)c1nc2cc(C(F)(F)F)ccc2[nH]1)c1cccc(Cl)c1Cl` [Compound 129, N-(2,3-dichlorophenyl)-N-(3-(methylsulfonyl)propyl)-5-(trifluoromethyl)-1H-benzo[d]imidazole-2-carboxamide] the value was not below 7.00; for `O=C(c1nc2cc(C(F)(F)F)cc(F)c2[nH]1)N(c1cccc(F)c1Cl)C1CCS(=O)(=O)CC1` [Compound 130], not below 7.00. Take `O=C(c1nc2cc(C(F)(F)F)ccc2[nH]1)N(Cc1cc[nH]n1)c1cccc(Cl)c1Cl` [Compound 132, N-((1H-pyrazol-3-yl)methyl)-N-(2,3-dichlorophenyl)-5-(trifluoromethyl)-1H-benzo[d]imidazole-2-carboxamide]: the negative logarithm of the IC50 (pIC50) was not below 7.00. Regarding `Cc1c(Cl)cncc1N(CC(F)(F)CO)C(=O)c1nc2cc(C(F)(F)F)ccc2[nH]1` [Compound 133, N-(5-chloro-4-methylpyridin-3-yl)-N-(2,2-difluoro-3-hydroxypropyl)-5-(trifluoromethyl)-1H-benzo[d]imidazole-2-carboxamide], the pIC50 is not below 7.00. For `O=C(c1nc2cc(C(F)(F)F)ccc2[nH]1)N(CCC1CNC1)c1cccc(Cl)c1Cl` [Compound 134, N-(2-(azetidin-3-yl)ethyl)-N-(2,3-dichlorophenyl)-5-(trifluoromethyl)-1H-benzo[d]imidazole-2-carboxamide], the pIC50 was 6.30 to 7.00. Then `O=C(c1nc2cc(C(F)(F)F)ccc2[nH]1)N(CC1(F)COC1)c1cccc(Cl)c1Cl` [Compound 135, N-(2,3-dichlorophenyl)-N-((3-fluorooxetan-3-yl)methyl)-5-(trifluoromethyl)-1H-benzo[d]imidazole-2-carboxamido], with not below 7.00; and `Cc1c(Cl)cccc1N(CCO)C(=O)c1nc2cc(C(F)(F)F)ccc2[nH]1` [Compound 137, N-(3-chloro-2-methylphenyl)-N-(2-hydroxyethyl)-5-(trifluoromethyl)-1H-benzo[d]imidazole-2-carboxamide], with not below 7.00. Then `Cc1ccnc(N(CCO)C(=O)c2nc3cc(C(F)(F)F)ccc3[nH]2)c1Cl` [Compound 138, N-(3-chloro-4-methylpyridin-2-yl)-N-(2-hydroxyethyl)-5-(trifluoromethyl)-1H-benzo[d]imidazole-2-carboxamide], with 6.30 to 7.00. On to `Cn1cc(-c2ccc3[nH]c(C(=O)N(CCO)c4cccc(Cl)c4Cl)nc3c2)cn1` [Compound 139, N-(2,3-dichlorophenyl)-N-(2-hydroxyethyl)-5-(1-methyl-1H-pyrazol-4-yl)-1H-benzo[d]imidazole-2-carboxamide], for which the pIC50 was 6.30 to 7.00.

As to `COC(=O)CN(C(=O)c1nc2cc(C(F)(F)F)ccc2[nH]1)c1cccc(Cl)c1Cl` [Compound 140, Methyl N-(2,3-dichlorophenyl)-N-(5-(trifluoromethyl)-1H-benzo[d]imidazole-2-carbonyl)glycinate], the pIC50 is not below 7.00.

As for `NC(=O)CN(C(=O)c1nc2cc(C(F)(F)F)ccc2[nH]1)c1cccc(Cl)c1Cl` [Compound 141, N-(2-amino-2-oxoethyl)-N-(2,3-dichlorophenyl)-5-(trifluoromethyl)-1H-benzo[d]imidazole-2-carboxamide], the pIC50 was not below 7.00.

Turning to `Cc1c(-c2ccn[nH]2)ccc2[nH]c(C(=O)N(CC3COC3)c3cccc(Cl)c3Cl)nc12` [Compound 142], the pIC50 is not above 6.00. For `O=C(c1nc2c(Cl)c(-c3ccn[nH]3)ccc2[nH]1)N(CC1COC1)c1cccc(Cl)c1Cl` [Compound 143], the pIC50 is not above 6.00.
